# ChEMBL document CHEMBL1154170, “2-Oxoglutarate analogue inhibitors of prolyl hydroxylase domain 2” (Bioorg Med Chem Lett, 2009)
# Target: Egl nine homolog 1 (Homo sapiens, UniProt Q9GZT9)
# Assay: Inhibition of human PHD2 catalytic domain (181-426) by FRET assay
# Chain of Egl nine homolog 1 (Q9GZT9 whole entry, the tested form may be a part): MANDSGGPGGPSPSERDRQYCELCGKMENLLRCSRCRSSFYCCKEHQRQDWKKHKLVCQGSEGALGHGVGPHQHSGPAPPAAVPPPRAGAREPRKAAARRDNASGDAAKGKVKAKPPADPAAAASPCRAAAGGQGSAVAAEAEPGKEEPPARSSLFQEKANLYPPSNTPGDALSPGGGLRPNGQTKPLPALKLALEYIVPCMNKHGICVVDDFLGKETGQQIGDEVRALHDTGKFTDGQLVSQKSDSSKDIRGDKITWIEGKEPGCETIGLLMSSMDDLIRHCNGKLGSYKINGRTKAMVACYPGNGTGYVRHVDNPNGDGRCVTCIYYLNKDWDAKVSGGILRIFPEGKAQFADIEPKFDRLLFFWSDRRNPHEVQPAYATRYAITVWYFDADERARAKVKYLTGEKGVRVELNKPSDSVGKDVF
row,SMILES,IC50 [µM]
1,O=C(O)CNC(=O)NO,> 1000
2,O=C(O)CN1CCNC(=O)C1=O,> 1000
3,O=C(O)CCC(=O)NO,94
4,CC(=O)CC(=O)NCC(=O)O,> 1000
5,O=C(O)CNC(=O)C(=O)C(=O)c1ccccc1,538
6,CC(=O)CC(=O)CCC(=O)O [SUCCINYLACETONE],18
7,CCNC(=O)C(=O)CCC(=O)O,> 1000
8,CCNC(=O)C(=O)NCC(=O)O,> 1000
9,CCOC(=O)C(=O)NCC(=O)O,78
10,O=C(O)CNC(=O)C(=O)NCc1ccccc1,> 1000
11,O=C(O)CNC(=O)CC(=O)O,398
12,CCOC(=O)CC(=O)NCC(=O)O,> 1000
13,COC(=O)C(=O)NCC(=O)O,95
14,O=C(O)CNC(=O)CC(=O)c1ccccc1,> 1000
15,COC(=O)CNC(=O)C(=O)O,> 1000
